Common to all, as to assay: AK assay 384-well format, Prestwick library screening
Assay [1] concerns P. aeruginosa. It counts as cell-based, Pseudomonas aeruginosa. Conditions: Pseudomonas aeruginosa, 3 h.
Assay [2] concerns S. aureus strain USA300-0114. It counts as cell-based, Staphylococcus aureus. Conditions: for fold induction at 50 µM: Staphylococcus aureus, USA300, 3 h.
Assay [3] deals with A. baumannii strain 98-37-09. It counts as cell-based, Acinetobacter baumannii. Conditions: Acinetobacter baumannii, 983709, 3 h.
The subject of assay [4] is E. cloacae. It counts as cell-based, Enterobacter cloacae. Conditions: Enterobacter cloacae, 3 h.
In assay [5] the test system is E. faecium. Format: cell-based, Enterococcus faecium. Conditions: Enterococcus faecium, 3 h.
For assay [6], the system named is E. coli. It counts as cell-based, Escherichia coli. Conditions: Escherichia coli, 3 h.
Assay [7] relates to K. pneumoniae. It counts as cell-based, Klebsiella pneumoniae. Conditions: Klebsiella pneumoniae, 3 h.
Where [8] appears, read: planktonic P. aeruginosa, 50 μM final drug concentration, positive cutoff 3-fold increase, read-out: AK-based Prestwick library screening result, P. aeruginosa (fold increase in extracellular AK activity).
Where [9] appears, read: planktonic S. aureus, 50 μM final drug concentration, positive cutoff 3-fold increase, read-out: AK-based Prestwick library screening result, S. aureus (fold increase in extracellular AK activity).
Where [10] appears, read: planktonic A. baumannii, 50 μM final drug concentration, positive cutoff 3-fold increase, read-out: AK-based Prestwick library screening result, A. baumannii (fold increase in extracellular AK activity).
Setting [11] is: planktonic E. cloacae, 50 μM final drug concentration, positive cutoff 3-fold increase, read-out: AK-based Prestwick library screening result, E. cloacae (fold increase in extracellular AK activity).
Where [12] appears, read: planktonic E. faecium, 50 μM final drug concentration, positive cutoff 3-fold increase, read-out: AK-based Prestwick library screening result, E. faecium (fold increase in extracellular AK activity).
The mark [13] stands for this setting: planktonic E. coli, 50 μM final drug concentration, positive cutoff 3-fold increase, read-out: AK-based Prestwick library screening result, E. coli (fold increase in extracellular AK activity).
Where [14] appears, read: planktonic K. pneumoniae, 50 μM final drug concentration, positive cutoff 3-fold increase, read-out: AK-based Prestwick library screening result, K. pneumoniae (fold increase in extracellular AK activity).
The mark [15] stands for this setting: 50 μM final drug concentration, planktonic, cutoff for positive 3-fold increase, read-out: AK-based Prestwick Library Screening Results, P. aeruginosa (fold increase in extracellular AK activity).
[16] abbreviates: 50 μM final drug concentration, planktonic, cutoff for positive 3-fold increase, read-out: AK-based Prestwick Library Screening Results, S. aureus (fold increase in extracellular AK activity).
[17] abbreviates: 50 μM final drug concentration, planktonic, cutoff for positive 3-fold increase, read-out: AK-based Prestwick Library Screening Results, A. baumannii (fold increase in extracellular AK activity).
Setting [18] is: 50 μM final drug concentration, planktonic, cutoff for positive 3-fold increase, read-out: AK-based Prestwick Library Screening Results, E. cloacae (fold increase in extracellular AK activity).
[19] abbreviates: 50 μM final drug concentration, planktonic, cutoff for positive 3-fold increase, read-out: AK-based Prestwick Library Screening Results, E. faecium (fold increase in extracellular AK activity).
The mark [20] stands for this setting: 50 μM final drug concentration, planktonic, cutoff for positive 3-fold increase, read-out: AK-based Prestwick Library Screening Results, E. coli (fold increase in extracellular AK activity).
Where [21] appears, read: 50 μM final drug concentration, planktonic, cutoff for positive 3-fold increase, read-out: AK-based Prestwick Library Screening Results, K. pneumoniae (fold increase in extracellular AK activity).

Like-named read-outs stand apart in the source and are kept apart here.

The values below come from patent publication US10004701B2, “Methods and compositions for treating infection” (UNIVERSITY OF ROCHESTER, priority 2012, dated 2018).

On to `CC(C[N+](C)(C)C)OC(N)=O` (stereo not shown) [Bethanechol chloride], for which the fold induction at 50 µM in assay [1] (setting [8]) turned out to be 0.7; in assay [2] (setting [9]), 0.7; in assay [3] (setting [10]) it was 0.8; in assay [4] (setting [11]) it was 0.9; in assay [5] (setting [12]), 0.9; in assay [6] (setting [13]), 1. The fold induction at 50 µM in assay [7] (setting [14]) turned out to be 0.7.

`CO[C@@]1(NC(=O)C2SC(=C(C(N)=O)C(=O)O)S2)C(=O)N2C(C(=O)O)=C(CSc3nnnn3C)CS[C@@H]21` (stereo partly shown) [Cefotetan]: the fold induction at 50 µM turned out to be 1.2 in assay [1] (setting [15]); 2.5 in assay [2] (setting [16]); 2 in assay [3] (setting [17]); 25.3 in assay [4] (setting [18]); 1.2 in assay [5] (setting [19]); 22.1 in assay [6] (setting [20]). Further, the fold induction at 50 µM in assay [7] (setting [21]) was found to be 8.4.

On to `CC(C)/N=c1\cc2n(-c3ccc(Cl)cc3)c3ccccc3nc-2cc1Nc1ccc(Cl)cc1` [Clofazimine, clofazimine, reference compound], for which the fold induction at 50 µM in assay [1] (setting [15]) stood at 1; in assay [2] (setting [16]), 4.6; in assay [3] (setting [17]), 5; in assay [4] (setting [18]), 1.8; in assay [5] (setting [19]) it was 1; in assay [6] (setting [20]), 1.2. Also, the fold induction at 50 µM in assay [7] (setting [21]) was 1.1. The “activity in AK Prestwick screen” value in assay [2] (S. aureus USA300-0114, 50 μM, cutoff 3-fold increase in AK) was “active”.

As for `COc1ncnc(NS(=O)(=O)c2ccc(N)cc2)c1OC` [Sulfadoxine], the fold induction at 50 µM was found to be 1 in assay [1] (setting [8]); 0.9 in assay [2] (setting [9]); 2.9 in assay [3] (setting [10]); 1.3 in assay [4] (setting [11]); 1 in assay [5] (setting [12]); 1 in assay [6] (setting [13]). For the same molecule, the fold induction at 50 µM in assay [7] (setting [14]) came to 1.

As for `CO[C@H]1C[C@H](O[C@H]2[C@H](C)[C@@H](O[C@@H]3O[C@H](C)C[C@H](N(C)C)[C@H]3O)[C@@H](C)C[C@@]3(CO3)C(=O)[C@H](C)[C@@H](O)[C@@H](C)[C@@H](C)OC(=O)[C@@H]2C)O[C@@H](C)[C@@H]1O` [Oleandomycin phosphate], the fold induction at 50 µM in assay [1] (planktonic P. aeruginosa, 50 μM final drug concentration, 384-well, cutoff for positive-scoring molecules 3-fold increase, read-out: AK-based Prestwick Library Screening Results: P. aeruginosa (increase in extracellular AK activity)) stood at 1; in assay [2] (planktonic S. aureus, 50 μM final drug concentration, 384-well, cutoff for positive-scoring molecules 3-fold increase, read-out: AK-based Prestwick Library Screening Results: S. aureus (increase in extracellular AK activity)) it was 3.6; in assay [3] (planktonic A. baumannii, 50 μM final drug concentration, 384-well, cutoff for positive-scoring molecules 3-fold increase, read-out: AK-based Prestwick Library Screening Results: A. baumannii (increase in extracellular AK activity)) it was 1.1; in assay [4] (planktonic E. cloacae, 50 μM final drug concentration, 384-well, cutoff for positive-scoring molecules 3-fold increase, read-out: AK-based Prestwick Library Screening Results: E. cloacae (increase in extracellular AK activity)), 1.6; in assay [5] (planktonic E. faecium, 50 μM final drug concentration, 384-well, cutoff for positive-scoring molecules 3-fold increase, read-out: AK-based Prestwick Library Screening Results: E. faecium (increase in extracellular AK activity)), 1; in assay [6] (planktonic E. coli, 50 μM final drug concentration, 384-well, cutoff for positive-scoring molecules 3-fold increase, read-out: AK-based Prestwick Library Screening Results: E. coli (increase in extracellular AK activity)), 1.1. The fold induction at 50 µM in assay [7] (planktonic K. pneumoniae, 50 μM final drug concentration, 384-well, cutoff for positive-scoring molecules 3-fold increase, read-out: AK-based Prestwick Library Screening Results: K. pneumoniae (increase in extracellular AK activity)) was 1.

In the case of `C[C@]12CC[C@H](O)C[C@@H]1CC[C@@H]1[C@@H]2CC[C@]2(C)C(=O)CC[C@@H]12` [Epiandrosterone], the fold induction at 50 µM was 0.8 in assay [1] (read-out: AK-based Prestwick Library Screening Results, P. aeruginosa (increase in extracellular AK activity)); 0.6 in assay [2] (read-out: AK-based Prestwick Library Screening Results, S. aureus (increase in extracellular AK activity)); 0.8 in assay [3] (read-out: AK-based Prestwick Library Screening Results, A. baumannii (increase in extracellular AK activity)); 1.1 in assay [4] (read-out: AK-based Prestwick Library Screening Results, E. cloacae (increase in extracellular AK activity)); 1 in assay [5] (read-out: AK-based Prestwick Library Screening Results, E. faecium (increase in extracellular AK activity)); 0.9 in assay [6] (read-out: AK-based Prestwick Library Screening Results, E. coli (increase in extracellular AK activity)). In addition, in assay [7] (read-out: AK-based Prestwick Library Screening Results, K. pneumoniae (increase in extracellular AK activity)), the fold induction at 50 µM is 0.7.
